From patent publication US6949660B2, “Chiral (1pyrrolino) fullerene derivatives” (Seth Nanotechnology, Incorporated, priority 1995, dated 2005)

What was measured:
[1] = test system: superoxide radicals (O2−); test: Superoxide radical scavenging: xanthine/xanthine oxidase system, cytochrome C reduction, absorption at 550 nm; assay type: biochemical; settings: xanthine 50 μM, cytochrome C 10 μM, phosphate buffer pH 7.8
Experimental: Detection of high free radical scavenging potency of hydrophilic fullerene derivatives. […] Therefore, the detected optical absorption intensity of the reduced cytochrome (Fe^+2) C can be correlated to the quantity of superoxide radicals reacted with cytochrome (Fe^+3) C. Scavenging of superoxide radicals by hydrophilic fullerene derivatives in the bio-medium inhibits the formation of reduced cytochrome (Fe+2) C and thus reduce the optical absorption at 550 nm.
In one experiment, xanthine (50 μM) was added to a physiological medium (3 ml) containing cytochrome C (10 μM), ethylenediaminetetraacetic acid (EDTA) (10 mM) and a phosphate buffer (50 mM) at pH 7.8. The mixture was then added xanthine oxidase in quantity enough to induce 0.025 unit of optical absorption at 550 nm per 5 min (Mc Cord, et al. J. Biol. Chem. 1969, 244, 6049.). Subsequently, 1,3-dimethyl-N-succinamitofulleropyrrolidine-1,3-dicarboxylic acid, C60[C(CH3)CO2H]2NCO—CH2CH2CO2H, prepared in Example 12, in a concentration of 0, 5.0, 10.0, 25.0, 50, and 100 μM was added in separated runs while the absorption intensity of the reduced cytochrome C was recorded. A rapid decrease of reduced cytochrome C to roughly 50% and 20% of the control value was obtained with the dose of 1,3-dimethyl-N-succinamitofulleropyrrolidine-1,3-dicarboxylic acid as 25 and 100 μM, respectively.

[2] = test system: Fibrosarcoma tumor cells (CCRC 60037); test: Growth inhibition of fibrosarcoma tumor cells upon photo-irradiation, MTT assay; assay type: cell-based; settings: compound 2.5 μM for 24 h; fluorescence light (27 W) photo-irradiation more than 20 min; then 48 h at 37° C.
Experimental: The growth inhibitory effect of 1,3-dimethyl-N-succinamitofulleropyrrolidine-1,3-dicarboxylic acid, C60[C(CH3)CO2H]2NCO—CH2CH2CO2H, which was prepared as described in Example 12, on fibrosarcoma tumor cells upon photo-irradiation was studied in vitro. Fibrosarcoma tumor cells (0.5 ml, 4×10^4/ml, CCRC 60037) were grown in the MEM medium in a 24-well plate for a period of 24 h. It was treated by 1,3-dimethyl-N-succinamitofulleropyrrolidine-1,3-dicarboxylic acid in a concentration of 0.0, 2.5, 5.0, 7.5, and 10.0 μM for a period of 24 hours. The MEM medium was removed and replaced by the fresh medium (1.0 ml). The cell-containing plates were exposed to a fluorescence light source (27 W) in a distance of 5-6 cm for a period of 10, 20, 40, and 60 min. The plates were then kept in incubator at 37° C. a period of 48 h. Measurement of cell viability in each plate was performed by the MTT assay using optical absorption at 540 nm.

For “1,3-dimethyl-N-succinamitofulleropyrrolidine-1,3-dicarboxylic acid”, the “reduced cytochrome C, % of the control value” ([1]; compound 25 μM) was “roughly 50%”, the “reduced cytochrome C, % of the control value” ([1]; compound 100 μM) was ~20% and the “tumor cell count (cell viability, MTT, absorption at 540 nm)” value [2] was “rapid decrease in the tumor cell count”.
